Usually MIC80 stands for the lowest concentration that inhibits either 80% of growth or 80% of the strains tested, depending on the study. Low readings indicate higher susceptibility, high ones lower susceptibility.

Nine compounds from ChEMBL document CHEMBL1641470, “New azoles with antifungal activity: Design, synthesis, and molecular docking” (2011) can be followed below.

The structures appear in SMILES notation. Values after ≈ are worked out from the molar mass of the structure shown.

Common to all, as to type: functional
The test system of one assay is Candida parapsilosis. Put plainly: Antifungal activity against Candida parapsilosis by broth microdilution method. The note with it: Lodderomyces parapsilosis.
A further assay concerns Trichophyton rubrum. Put plainly: Antifungal activity against Trichophyton rubrum by broth microdilution method.
In another assay the test system is Aspergillus fumigatus. The assay is described as follows: Antifungal activity against Aspergillus fumigatus by broth microdilution method. On the technique in general: In broth dilution the organism is exposed to a series of concentrations in liquid medium.
In a further assay the test system is Nannizzia gypsea. The assay is described as follows: Antifungal activity against Microsporum gypseum by broth microdilution method.
In another assay the test system is Fusarium. The assay is described as follows: Antifungal activity against Fusarium by broth microdilution method.
In a further assay the test system is Cryptococcus neoformans. The assay is described as follows: Antifungal activity against Cryptococcus neoformans ATCC BLS108 after 72 hrs by broth microdilution method.
Another assay relates to Candida tropicalis. The assay is described as follows: Antifungal activity against Candida tropicalis by broth microdilution method.
A further assay relates to Candida albicans. Put plainly: Antifungal activity against Candida albicans ATCC Y0109 after 24 hrs by broth microdilution method.

Regarding `O=C(/C=C/c1ccc(F)cc1)Nc1ccc(N2CCN(CC(O)(Cn3cncn3)c3ccc(F)cc3F)CC2)c(F)c1` (configuration not stated), the MIC80 with Candida parapsilosis was 0.0156 µg/mL (≈ 0.0269 µM); against Trichophyton rubrum, 0.0625 µg/mL (≈ 0.108 µM); against Aspergillus fumigatus it was 1 µg/mL (≈ 1.72 µM); against Nannizzia gypsea it was 0.25 µg/mL (≈ 0.431 µM); in the assay on Fusarium, 0.25 µg/mL (≈ 0.431 µM); against Cryptococcus neoformans it was 0.25 µg/mL (≈ 0.431 µM). In addition, the MIC80 stood at 0.0156 µg/mL (≈ 0.0269 µM) against Candida tropicalis and 0.25 µg/mL (≈ 0.431 µM) against Candida albicans.

In the case of `O=C(/C=C/c1cccc(Br)c1)Nc1ccc(N2CCN(CC(O)(Cn3cncn3)c3ccc(F)cc3F)CC2)c(F)c1` (configuration not stated), the MIC80 against Candida parapsilosis amounted to 0.25 µg/mL (≈ 0.39 µM); with Trichophyton rubrum, 0.25 µg/mL (≈ 0.39 µM); in the assay with Aspergillus fumigatus, 4 µg/mL (≈ 6.24 µM); in the assay on Nannizzia gypsea, 0.25 µg/mL (≈ 0.39 µM); against Fusarium it was 1 µg/mL (≈ 1.56 µM); in the assay on Cryptococcus neoformans, 0.0156 µg/mL (≈ 0.0243 µM). Moreover, the MIC80 in the assay with Candida tropicalis stood at 0.0625 µg/mL (≈ 0.0974 µM); against Candida albicans, 1 µg/mL (≈ 1.56 µM).

Turning to `N#Cc1ccc(/C=C/C(=O)Nc2ccc(N3CCN(CC(O)(Cn4cncn4)c4ccc(F)cc4F)CC3)c(F)c2)cc1` (configuration not stated), the MIC80 in the assay on Candida parapsilosis was 1 µg/mL (≈ 1.7 µM); with Trichophyton rubrum, 4 µg/mL (≈ 6.81 µM); against Aspergillus fumigatus, > 64 µg/mL; in the assay on Nannizzia gypsea, 4 µg/mL (≈ 6.81 µM); against Fusarium, 64 µg/mL (≈ 109 µM); in the assay on Cryptococcus neoformans it was 1 µg/mL (≈ 1.7 µM). The MIC80 stood at 1 µg/mL (≈ 1.7 µM) in the assay on Candida tropicalis and 0.25 µg/mL (≈ 0.425 µM) in the assay on Candida albicans.

In the case of `O=C(/C=C/c1ccc([N+](=O)[O-])cc1)Nc1ccc(N2CCN(CC(O)(Cn3cncn3)c3ccc(F)cc3F)CC2)c(F)c1` (configuration not stated), the MIC80 in the assay with Candida parapsilosis is 0.25 µg/mL (≈ 0.411 µM); against Trichophyton rubrum, 0.0625 µg/mL (≈ 0.103 µM); in the assay with Aspergillus fumigatus, > 64 µg/mL; with Nannizzia gypsea, 0.25 µg/mL (≈ 0.411 µM); in the assay with Fusarium, 1 µg/mL (≈ 1.65 µM); against Cryptococcus neoformans, 1 µg/mL (≈ 1.65 µM). Further, the MIC80 was found to be 0.25 µg/mL (≈ 0.411 µM) against Candida tropicalis and 0.0156 µg/mL (≈ 0.0257 µM) against Candida albicans.

On to `Cc1ccc(/C=C/C(=O)Nc2ccc(N3CCN(CC(O)(Cn4cncn4)c4ccc(F)cc4F)CC3)c(F)c2)cc1` (configuration not stated), for which the MIC80 against Candida parapsilosis turned out to be 1 µg/mL (≈ 1.73 µM); with Trichophyton rubrum it was 0.25 µg/mL (≈ 0.434 µM); in the assay with Aspergillus fumigatus it was 1 µg/mL (≈ 1.73 µM); with Nannizzia gypsea it was 0.25 µg/mL (≈ 0.434 µM); against Fusarium it was 1 µg/mL (≈ 1.73 µM); in the assay with Cryptococcus neoformans, 4 µg/mL (≈ 6.94 µM). The MIC80 in the assay on Candida tropicalis stood at 0.0625 µg/mL (≈ 0.108 µM); in the assay on Candida albicans, 0.25 µg/mL (≈ 0.434 µM).

As for `O=C(/C=C/c1ccc(Cl)c(Cl)c1)Nc1ccc(N2CCN(CC(O)(Cn3cncn3)c3ccc(F)cc3F)CC2)c(F)c1` (configuration not stated), the MIC80 with Candida parapsilosis amounted to 0.25 µg/mL (≈ 0.396 µM); against Trichophyton rubrum, 0.0625 µg/mL (≈ 0.099 µM); against Aspergillus fumigatus it was 4 µg/mL (≈ 6.33 µM); in the assay on Nannizzia gypsea, 0.25 µg/mL (≈ 0.396 µM); against Fusarium, 0.25 µg/mL (≈ 0.396 µM); against Cryptococcus neoformans, 1 µg/mL (≈ 1.58 µM). Further, the MIC80 in the assay on Candida tropicalis was found to be 0.0625 µg/mL (≈ 0.099 µM); against Candida albicans, 1 µg/mL (≈ 1.58 µM).

As for `O=C(/C=C/c1cccc(F)c1)Nc1ccc(N2CCN(CC(O)(Cn3cncn3)c3ccc(F)cc3F)CC2)c(F)c1` (configuration not stated), the MIC80 amounted to 0.0156 µg/mL (≈ 0.0269 µM) against Candida parapsilosis; 0.25 µg/mL (≈ 0.431 µM) in the assay on Trichophyton rubrum; 4 µg/mL (≈ 6.89 µM) in the assay with Aspergillus fumigatus; 0.25 µg/mL (≈ 0.431 µM) with Nannizzia gypsea; 0.25 µg/mL (≈ 0.431 µM) against Fusarium; 0.25 µg/mL (≈ 0.431 µM) against Cryptococcus neoformans. Also, the MIC80 in the assay with Candida tropicalis and in the assay with Candida albicans was 0.25 µg/mL (≈ 0.431 µM) in each case.

In the case of `O=C(/C=C/c1cccc(F)c1)Nc1ccc(N2CCN(CC(O)(Cn3cncn3)c3ccc(F)cc3F)CC2)cc1` (configuration not stated), the MIC80 against Candida parapsilosis amounted to 0.25 µg/mL (≈ 0.444 µM); in the assay on Trichophyton rubrum it was 0.25 µg/mL (≈ 0.444 µM); against Aspergillus fumigatus, 4 µg/mL (≈ 7.11 µM); with Nannizzia gypsea it was 0.0156 µg/mL (≈ 0.0277 µM); against Fusarium, 1 µg/mL (≈ 1.78 µM); against Cryptococcus neoformans, 0.25 µg/mL (≈ 0.444 µM). For the same compound, the values for the MIC80 against Candida tropicalis and in the assay with Candida albicans were 0.25 µg/mL (≈ 0.444 µM) and 0.0156 µg/mL (≈ 0.0277 µM), respectively.

As to `O=C(/C=C/c1ccc(F)cc1)Nc1ccc(N2CCN(CC(O)(Cn3cncn3)c3ccc(F)cc3F)CC2)cc1` (configuration not stated), the MIC80 with Candida parapsilosis was 0.25 µg/mL (≈ 0.444 µM); with Trichophyton rubrum, 0.0039 µg/mL (≈ 0.00693 µM); with Aspergillus fumigatus, 0.0625 µg/mL (≈ 0.111 µM); in the assay with Nannizzia gypsea it was 0.0625 µg/mL (≈ 0.111 µM); against Fusarium, 1 µg/mL (≈ 1.78 µM); against Cryptococcus neoformans, 0.25 µg/mL (≈ 0.444 µM). The MIC80 was 0.25 µg/mL (≈ 0.444 µM) with Candida tropicalis and 0.0625 µg/mL (≈ 0.111 µM) in the assay with Candida albicans.
